Measurements: patent publication US10183973B2, “Solvate of cyclic peptide compound, preparation method for same, and uses thereof” (SHANGHAI TECHWELL BIOPHARMACEUTICAL CO., LTD, priority 2014, dated 2019)
*1 amine or outer side, *2 acyl side, *3 side chain or, on linkers, in order; H or OH if unused. Where a SMILES comes first, the peptide text is derived from it. Bridges are numbered along the chain shown (N, C = ends). [ ]: non-standard residue; d: D form. The star is where a group is joined. hTyr(3S-OH,4S-OH,3'-OSO3H) = N[C@H](C(=O)O)[C@H](O)[C@@H](O)c1ccc(O)c(OS(=O)(=O)O)c1; Orn(4R-OH,5R-OH) = O=C([C@H](C[C@@H](O)[C@@H](O)N[*:3])N[*:1])[*:2]; Pro(3S-OH,4S-Me) = C[C@H]1CN[C@H](C(=O)O)[C@H]1O; X1 = CCCCCOc1ccc(-c2cc(-c3ccc(C(=O)*)cc3)no2)cc1; Gln(3R-OH) = NC(=O)C[C@@H](O)[C@H](N)C(=O)O; Hyp = O=C(O)[C@@H]1C[C@@H](O)CN1

Experiment: Purity and stability test (HPLC purity after sealed storage at 25° C. for 30 days)
Type: physicochemical
Settings: for Purity of initial sample: HPLC purity before storage (baseline of stability test); for Purity of sample after stored ar 25° C. for 30 days: sealed, HPLC purity
From the text: High performance liquid chromatography (HPLC) is a common method for detecting the purity of a compound, wherein a liquid is used as the mobile phase and a high-pressure transfusion system is used for pumping the mobile phase, such as single solvents with different polarities or a mixture of solvents at different proportions, buffers, into a column packed with a stationary phase. Each component is separated in the column, and then enters into a detector for detection, thereby analyzing a sample. In the present invention, HPLC is used for determining the purity of the compound of formula I and studying the stability of a sample.
HPLC detection method is listed as follows:
Analysis Column: YMC-ODS 250×4.6 mm, 5 μm;
Mobile phase: acetonitrile:phosphate buffer (pH 3.0)=45:70;
Column temperature: 35° C.;
Diluent: aqueous phosphate buffer;
Detection wavelength: 210 nm;
In this Example, the purity and stability of samples obtained in Comparative Examples and Examples were compared. The used method is described as follows:
The solvate of the compound of formula I prepared in Examples 2, the crystal of B82 type obtained in Comparative Example 1 and amorphous solids obtained in Example 1 were taken and sealed at 25° C. for 30 days respectively. And then the content of impurities in the sample was analyzed. Results for comparing the stability of the solvate of the compound of formula I according to the present invention, the crystal of B82 type and the amorphous solid are shown in the following table: […]

SMILES | Purity of initial sample [%] | Purity of sample after stored ar 25° C. for 30 days [%] | stability compared with crystal of B82 type (solid-state stability, in words)
CCCCCOc1ccc(-c2cc(-c3ccc(C(=O)N[C@H]4C[C@@H](O)[C@@H](O)NC(=O)[C@@H]5[C@@H](O)[C@@H](C)CN5C(=O)[C@H]([C@H](O)CC(N)=O)NC(=O)[C@H]([C@H](O)[C@@H](O)c5ccc(O)c(OS(=O)(=O)[O-])c5)NC(=O)[C@@H]5C[C@@H](O)CN5C(=O)[C@H]([C@@H](C)O)NC4=O)cc3)no2)cc1.[Na+] [Solvate of the compound of formula I, Sodium 5-[(1S,2S)-2-[(3S,6S,9S,11R,15S,18S,20R,21R,24S,25S,26S)-3-[(R)-2-carbamoyl-1-hydroxyethyl]-11,20,21,25-tetrahydroxy-15-[(R)-1-hydroxyethyl]-26-methyl-2,5,8,14,17,23-hexaoxo-18-[4-[5-(4-pentoxyphenyl)isoxazol-3-yl]benzoylamino]-1,4,7,13,16,22-hexaazatricyclo[22.3.0.0^9,13]heptacosan-6-yl]-1,2-dihydroxyethyl]-2-hydroxy phenyl sulfate] (X1-[Orn(4R-OH,5R-OH)]T[Hyp][hTyr(3S-OH,4S-OH,3'-OSO3H)][Gln(3R-OH)][Pro(3S-OH,4S-Me)]; lactam 1-C) | 99.55 | 99.50 | better than that of the crystal of B82 type
CCCCCOc1ccc(-c2cc(-c3ccc(C(=O)N[C@H]4C[C@@H](O)[C@@H](O)NC(=O)[C@@H]5[C@@H](O)[C@@H](C)CN5C(=O)[C@H]([C@H](O)CC(N)=O)NC(=O)[C@H]([C@H](O)[C@@H](O)c5ccc(O)c(OS(=O)(=O)[O-])c5)NC(=O)[C@@H]5C[C@@H](O)CN5C(=O)[C@H]([C@@H](C)O)NC4=O)cc3)no2)cc1.[Na+] [Amorphous solids, Micafungin Sodium] (X1-[Orn(4R-OH,5R-OH)]T[Hyp][hTyr(3S-OH,4S-OH,3'-OSO3H)][Gln(3R-OH)][Pro(3S-OH,4S-Me)]; lactam 1-C) | 99.38 | 89.27 | –
CCCCCOc1ccc(-c2cc(-c3ccc(C(=O)N[C@H]4C[C@@H](O)[C@@H](O)NC(=O)[C@@H]5[C@@H](O)[C@@H](C)CN5C(=O)[C@H]([C@H](O)CC(N)=O)NC(=O)[C@H]([C@H](O)[C@@H](O)c5ccc(O)c(OS(=O)(=O)[O-])c5)NC(=O)[C@@H]5C[C@@H](O)CN5C(=O)[C@H]([C@@H](C)O)NC4=O)cc3)no2)cc1.[Na+] [Crystal of B82 type, Micafungin Sodium] (X1-[Orn(4R-OH,5R-OH)]T[Hyp][hTyr(3S-OH,4S-OH,3'-OSO3H)][Gln(3R-OH)][Pro(3S-OH,4S-Me)]; lactam 1-C) | 99.50 | 96.98 | –
